The structures appear in SMILES notation.

The record followed here is patent publication US20230121245A1, “REGENERATIVE NONSTEROIDAL ANTI-INFLAMMATORY COMPOSITIONS, METHODS OF PRODUCTION, AND METHODS OF USE THEREOF” (CROWN SCIENTIFIC, L.L.C., priority 2021, published 2023).

The subject of the assay is TNFα. The assay is described as follows: LPS induced TNFα response in PBMCs (monocyte/macrophage model). It counts as cell-based, human. The conditions noted are these: 0.01-100 μM, compared to vehicle control (0.13% DMSO), 100 ng LPS, 24 hours. As to the method: Fresh leukoreduction system (LRS) cones of healthy donors aged 18-80 years old were purchased from Oklahoma Blood Institute. PBMCs were isolated from LRS cones using EasySep™ Direct Human PBMC Isolation Kit (cat #19654, StemCell Technologies) as per manufacturer's specifications. 1.5 million PBMCs were seeded in 0.5 ml of RPMI (11835030, Gibco) supplemented with 5% HPL (Millcreek), lx Glutamax (35050061, Gibco), 1×NEAA (11140050, Gibco) and 2 U/ml heparin (25021040030, Sagent Pharmaceuticals) in a 24 well plate and rested overnight. The following day, PBMCs were co-stimulated with 100 ng of lipopolysaccharide (LPS, 00-4976-93, Invitrogen) and different doses RNSA in a volume of 0.5 ml. RNSA doses were prepared in saline (R5201-01, Braun) supplemented with 5% HPL and 2 U/ml heparin. Betamethasone (Cayman, 20363), a positive control, was resuspended in DMSO (D4540, Sigma) and administered to PBMCs at different doses to a final 0.13% DMSO concentration. Vehicle for RNSA was 50% saline and for Betamethasone 0.13% DMSO for a 1 ml reaction. All samples were tested in technical triplicates. Treatment duration was 24 hours for all groups. After 24 hours, the supernatant was collected, spun at 5,000 g for 10 minutes and the cell free supernatant stored at −80 C. To detect TNFα, hTNFα Simple Plex assay quantification was performed on ELLA ELISA based detection method (ProteinSimple).

Turning to `C[C@H]1C[C@H]2[C@@H]3CCC4=CC(=O)C=C[C@]4(C)[C@@]3(F)[C@@H](O)C[C@]2(C)[C@@]1(O)C(=O)CO` [Betamethasone], the “attenuation of TNFα response” value is recorded as 20-68%.
